# Laboratory results taken from patent US9693997B2, “Antiviral compounds” (priority 2013, dated 2017).
# Counter-ions that a name gives are not always drawn.
# Legend:
# Assay in all cases: microbe, parasite or virus in culture
# [1] = system: Pseudotyped HCV GT1b particles (HCVpp), entry into Huh7-high CD81 cells; assay type: cell-based, HCV GT1b Con1 strain; conditions: Hepatitis C virus, GT1B, 72 h, read-out: HCVpp GT-1b (EC50, μM)
# [2] = system: Pseudotyped HCV GT1a particles (HCVpp), entry into Huh7-high CD81 cells; assay type: cell-based, HCV GT1a H77 strain; conditions: Hepatitis C virus, 72 h, read-out: HCVpp GT-1a (EC50, μM)
# [3] = system: pseudotyped VSV G particles (VSVpp) in Huh7-high CD81 cells; assay type: cell-based, vesicular stomatitis virus; conditions: Vesicular stomatitis virus, 72 h, read-out: VSVpp (EC50, μM)
SMILES,EC50 [1] [µM],EC50 [2] [µM],EC50 [3] [µM]
"Nc1nc(Nc2ccc(-c3ccc(NC(=O)CCCC[C@@H]4SC[C@@H]5NC(=O)N[C@@H]54)cc3)cc2)n[nH]1 (stereo in doubt) [Compound 54, 5-((3aS,4S,6aR)-2-Oxo-hexaneahydro-thieno[3,4-d]imidazol-4-yl)-pentanoic acid [4′-(5-amino-1H-[1,2,4]triazol-3-ylamino)-biphenyl-4-yl]-amide]",10,5.73,> 10
"CC(C)(C)OC(=O)N1CCC(S(=O)(=O)c2ccc(-c3c(Cl)cc(Nc4n[nH]c(N)n4)cc3C(F)(F)F)cc2)CC1 [Compound 1, 4-[4′-(5-Amino-1H-[1,2,4]triazol-3-ylamino)-2′-chloro-6′-trifluoromethyl-biphenyl-4-sulfonyl]-piperidine-1-carboxylic acid tert-butyl ester]",0.001,0.014,> 10
"CS(=O)(=O)NCc1ccc(-c2c(Cl)cc(Nc3n[nH]c(N)n3)cc2Cl)cc1 [Compound 12, N-[4′-(5-Amino-1H-[1,2,4]triazol-3-ylamino)-2′,6′-dichloro-biphenyl-4-ylmethyl]-methanesulfonamide]",0.035,0.003,18.3
"CC(C)S(=O)(=O)c1ccc(-c2c(F)cc(Nc3n[nH]c(N)n3)cc2Cl)cc1 [Compound 23, N*3*-[2-Chloro-6-fluoro-4′-(propane-2-sulfonyl)-biphenyl-4-yl]-1H-[1,2,4]triazole-3,5-diamine]",0.092,0.023,> 10
"N#CCCCOc1ccc(-c2c(Cl)cc(Nc3n[nH]c(N)n3)cc2Cl)cc1 [Compound 26, 4-[4′-(5-Amino-1H-[1,2,4]triazol-3-ylamino)-2′,6′-dichloro-biphenyl-4-yloxy]-butyronitrile]",0.116,0.008,3.79
"CS(=O)(=O)Cc1ccc(-c2c(Cl)cc(Nc3n[nH]c(N)n3)cc2Cl)cc1 [Compound 31, N*3*-(2,6-Dichloro-4′-methanesulfonylmethyl-biphenyl-4-yl)-1H-[1,2,4]triazole-3,5-diamine]",0.086,0.004,3.23
"Nc1nc(Nc2cc(Cl)c(-c3ccc(OCC4CNC4)cc3)c(Cl)c2)n[nH]1 [Compound 32, N*3*-[4′-(Azetidin-3-ylmethoxy)-2,6-dichloro-biphenyl-4-yl]-1H-[1,2,4]triazole-3,5-diamine; hydrochloride]",0.116,0.006,6.1
"Nc1nc(Nc2cc(Cl)c(-c3ccc(S(=O)(=O)N4CCNCC4)cc3)c(C(F)(F)F)c2)n[nH]1 [Compound 33, N*3*-[2-Chloro-4′-(piperazine-1-sulfonyl)-6-trifluoromethyl-biphenyl-4-yl]-1H-[1,2,4]triazole-3,5-diamine]",0.099,0.019,34.3
"CN(C)S(=O)(=O)c1ccc(-c2c(F)cc(Nc3n[nH]c(N)n3)cc2Cl)cc1 [Compound 34, 4′-(5-Amino-1H-[1,2,4]triazol-3-ylamino)-2′-chloro-6′-fluoro-biphenyl-4-sulfonic acid dimethylamide]",0.122,0.028,> 10
"Nc1nc(Nc2cc(Cl)c(-c3ccc(NC(=O)CCCC[C@@H]4SC[C@@H]5NC(=O)N[C@@H]54)cc3)c(Cl)c2)n[nH]1 [Compound 39, 5-((3aS,4S,6aR)-2-Oxo-hexaneahydro-thieno[3,4-d]imidazol-4-yl)-pentanoic acid [4′-(5-amino-1H-[1,2,4]triazol-3-ylamino)-2′,6′-dichloro-biphenyl-4-yl]-amide]",0.09,0.002,> 10
"Nc1nc(Nc2cc(Cl)c(-c3ccccc3)c(Cl)c2)n[nH]1 [Compound 48, N*3*-(2,6-Dichloro-biphenyl-4-yl)-1H-[1,2,4]triazole-3,5-diamine]",0.533,0.01,30.5
"Nc1nc(Nc2ccc(-c3ccccc3)cc2)n[nH]1 [Compound 55, N*3*-Biphenyl-4-yl-1H-[1,2,4]triazole-3,5-diamine]",100,25.1,100
"CS(=O)(=O)c1cccc(-c2c(F)cc(Nc3nc(N)n[nH]3)cc2C(F)(F)F)c1 [Compound 74, N^5-(2-Fluoro-3′-(methylsulfonyl)-6-trifluoromethylbiphenyl-4-yl)-1H-[1,2,4]-triazole-3,5-diamine]",0.169,0.055,16.9
"Nc1nc(Nc2cc(Cl)c(-c3ccc(OC(F)(F)F)cc3)c(Cl)c2)n[nH]1 [Compound 91, N-3-(2,6-Dichloro-4′-trifluoromethyoxy-biphenyl-4-yl)-1H[1,2,4]triazole-3,5-diamine]",1.13,0.065,23.3
"Nc1nc(Nc2cc(Cl)c(-c3cccc(Cl)c3)c(Cl)c2)n[nH]1 [Compound 92, N3-(2,3′,6-Trichlorobiphenyl-4-yl)-1H-1,2,4-triazole-3,5-diamine]",0.57,0.034,35.5
"N#Cc1ccc(-c2c(Cl)cc(Nc3n[nH]c(N)n3)cc2Cl)cc1 [Compound 93, 4′-(5-Amino-1H-1,2,4-triazol-3-ylamino)-2′,6′-dichlorobiphenyl-4-carbonitrile]",0.364,0.015,14.8

SMILES,EC50 [1] [µM],EC50 [2] [µM],EC50 [3] [µM]
"CS(=O)(=O)c1ccc(-c2c(Cl)cc(Nc3n[nH]c(N)n3)cc2Cl)cc1 [Compound 94, N3-(2,6-Dichloro-4′-(methylsulfonyl)biphenyl-4-yl)-1H-1,2,4-triazole-3,5-diamine]",0.174,0.007,2
"Nc1nc(Nc2cc(Cl)c(-c3cccc4ccccc34)c(Cl)c2)n[nH]1 [Compound 95, N-3-(3,5-Dichloro-4-naphthalen-1-yl-phenyl)-1H-[1,2,4]triazole-3,5-diamine]",0.229,0.028,24.1
"Nc1nc(Nc2cc(Cl)c(-c3ccc(Cl)cc3)c(Cl)c2)n[nH]1 [Compound 96, N-3-(2,6,4′-Trichloro-biphenyl-4-yl)-1H-[1,2,4]triazole-3,5-diamine]",0.927,0.009,4.27
"Cc1ccc(-c2c(Cl)cc(Nc3n[nH]c(N)n3)cc2Cl)cc1 [Compound 97, N-3-(2,6-Dichloro-4′-methyl-biphenyl-4-yl)-1H-[1,2,4]triazole-3,5-diamine]",0.704,0.007,9.33
"COc1ccc(-c2c(Cl)cc(Nc3n[nH]c(N)n3)cc2Cl)cc1 [Compound 98, N-3-(2,6-Dichloro-4′-methoxy-biphenyl-4-yl)-1H-[1,2,4]triazole-3,5-diamine]",0.353,0.01,5.25
"Nc1nc(Nc2cc(Cl)c(-c3ccc(C(F)(F)F)cc3)c(Cl)c2)n[nH]1 [Compound 99, N-3-(2,6-Dichloro-4′-trifluoromethyl-biphenyl-4-yl)-1H-[1,2,4]triazole-3,5-diamine]",1.57,0.056,20.6
"COc1cccc(-c2c(Cl)cc(Nc3n[nH]c(N)n3)cc2Cl)c1 [Compound 100, N-3-(2,6-Dichloro-3′-methoxy-biphenyl-4-yl)-1H-[1,2,4]triazole-3,5-diamine]",0.839,0.062,14.3
"Nc1nc(Nc2cc(Cl)c(-c3ccccc3Cl)c(Cl)c2)n[nH]1 [Compound 101, N-3-(2,6,2′-Trichloro-biphenyl-4-yl)-1H-[1,2,4]triazole-3,5-diamine]",0.514,0.037,13.2
"Nc1nc(Nc2cc(Cl)c(-c3ccc(Cl)c(Cl)c3)c(Cl)c2)n[nH]1 [Compound 102, N-3-(2,6,3′,4′-Tetrachloro-biphenyl-4-yl)-1H-[1,2,4]triazole-3,5-diamine]",0.931,0.062,6.33
"N#Cc1cccc(-c2c(Cl)cc(Nc3n[nH]c(N)n3)cc2Cl)c1 [Compound 103, 4′-(5-Amino-1H-[1,2,4]triazol-3-ylamino)-2′,6′-dichloro-biphenyl-3-carbonitrile]",0.269,0.025,13.3
"N#Cc1ccccc1-c1c(Cl)cc(Nc2n[nH]c(N)n2)cc1Cl [Compound 104, 4′-(5-Amino-1H-[1,2,4]triazol-3-ylamino)-2′,6′-dichloro-biphenyl-2-carbonitrile]",1.28,0.072,17.8
"N#Cc1cc(-c2c(Cl)cc(Nc3n[nH]c(N)n3)cc2Cl)ccc1Cl [Compound 105, 4′-(5-Amino-1H-[1,2,4]triazol-3-ylamino)-4,2′,6′-trichloro-biphenyl-3-carbonitrile]",0.472,0.039,16.8
"Nc1nc(Nc2cc(Cl)c(-c3cccc(C(=O)O)c3)c(Cl)c2)n[nH]1 [Compound 106, 4′-(5-Amino-1H-[1,2,4]triazol-3-ylamino)-2′,6′-dichloro-biphenyl-3-carboxylic acid]",23.4,1.17,100
"CC(=O)c1ccc(-c2c(Cl)cc(Nc3n[nH]c(N)n3)cc2Cl)cc1 [Compound 107, 1-[4′-(5-Amino-1H-[1,2,4]triazol-3-ylamino)-2′,6′-dichloro-biphenyl-4-yl]-ethanone]",0.228,0.008,11.1
"CC(C)(C)NS(=O)(=O)c1ccc(-c2c(Cl)cc(Nc3n[nH]c(N)n3)cc2C(F)(F)F)cc1 [Compound 219, 4′-(5-Amino-1H-[1,2,4]triazol-3-ylamino)-6′-chloro-2′-trifluoromethyl-biphenyl-4-sulfonic acid tert-butylamide]",–,0.011,16.2
